Here are results for three molecules from paper PMC6791019, “(−)-Epigallocatechin-3-gallate derivatives combined with cisplatin exhibit synergistic inhibitory effects on non-small-cell lung cancer cells” (Cancer Cell International, 2019).

A short description of data set [1]: Transport across Caco-2 cell monolayers. It counts as in vitro ADME, human. To be noted: human; for Papp A→B at 30 min, 50 μg/mL / Papp A→B at 60 min, 50 μg/mL / Papp B→A at 30 min, 50 μg/mL / Papp B→A at 60 min, 50 μg/mL: Caco-2, 50 μg/mL; for Papp A→B at 30 min, 50 μg/mL / Papp A→B at 60 min, 50 μg/mL: apical to basolateral; for Papp B→A at 30 min, 50 μg/mL / Papp B→A at 60 min, 50 μg/mL: basolateral to apical; for Papp: Caco-2, summary of Table 1, read-out: apparent permeability coefficients (Papp), range over directions and times. On the procedure:
(§1) Caco-2 cells were grown as epithelial monolayers, seeded onto fibrillar collagen-coated polyethylene terephthalate (PET) Corning transwell inserts (1.12 cm^2) with a pore size of 3 μm at a density of 2.0 × 10^5 cells/insert, and incubated at 37 °C in an atmosphere of 5% CO2 and 95% relative humidity in complete DMEM. The medium was replaced every 2 days with 0.5 mL medium in the apical (AP) side and 1.5 mL in the basolateral (BL) side over a period of 21 days. The integrity of the cell monolayer was determined by measuring the TEER (transepithelial electrical resistance) using an epithelial voltohmmeter (EVOM). The TEER values for each monolayer were measured every 2 days until they exceeded 350 Ω cm^2. To ensure the integrity of the Caco-2 monolayers, the TEER values were monitored before and after the experiments.
(§2) To measure the transport of EGCG and compound 3 across the Caco-2 cell monolayer, both sides of the transwell were equilibrated for 30 min with warm Hank’s balanced salt solution (HBSS). The transport buffer containing EGCG and compound 3 was added to either the apical (0.5 mL) or the basolateral (1.5 mL) side of the insert, while the receiving compartment contained the corresponding volume of transport buffer. After incubation for 30 or 60 min, 100 μL samples were taken from the receiving chamber and immediately replenished with an equal volume of pre-warmed HBSS. The samples were acidified with an equal volume of 5% formic acid and then frozen until LC–MS analysis.
(§3) The apparent permeability coefficients (Papp) of the compounds were calculated using the following equation: Papp=dQ/dt×1/A·C0, where dQ/dt is the amount of solute transported across the Caco-2 barrier in time dt, C0 is the solute concentration in the apical compartment at time zero, and A is the cross-sectional area of the epithelium in contact with the apical solution.

The subject of data set [2] is NCI-H441 cells. As to the kind of experiment: Western blotting of cell cycle and apoptosis proteins. To be noted: NCI-H441, western blot, cDDP alone. It counts as cell-based, human. The protocol:
(§4) Samples containing equal amounts of proteins as indicated in the text were resolved by SDS polyacrylamide gel electrophoresis and transferred to PVDF membranes. The membranes were blocked with 5% BSA at room temperature for 1 h and then probed with primary antibodies overnight at 4 °C and incubated with the HRP-conjugated secondary antibodies for 1 h at room temperature. HRP was detected using the Pro-light HRP Chemiluminescent Kit (Tiangen Biotech, Beijing, China) and FluorChem E System (ProteinSimple, Santa Clara, CA, United States).

In the next data set the test system is NCI-H441 xenograft. As to the kind of experiment: NCI-H441 xenograft model in nude mice. Type of data set: in vivo, BALB-C/nude mice. To be noted: for tumor growth compared with the control: compound 3 200 mg/kg per day, cDDP 2 mg/kg per 2 days, i.p., nude mice. The protocol: Twenty-four male BALB-C/nude mice were purchased from the Cavens Lab Animal (Changzhou, China). The mice were subcutaneously injected in the dorsal with NCI-H441 cells (4 × 10^6/0.2 mL PBS per mouse). The mice were randomly divided into four groups, including control, compound 3, cDDP, and compound 3 plus cDDP (n = 6, per group). The mice were treated with compound 3 (200 mg/kg per day) and cDDP (2 mg/kg per 2 days) alone or in combination. All drugs were given through intra-peritoneal injection. Tumour size was measured once every 2 days with a calipre (volume mm^3 = length × width × width/2). Body weight was recorded once every 2 days. After there weeks of treatment, all mice were euthanized by cervical dislocation and the tumors were excised into formalin, and portion of the tumor fresh frozen in liquid nitrogen for further processing and analysis.
Three micrometer sections were cut, deparaffinized in xylenes, rehydrated in ethanol, and washed in phosphate-buffered saline. The antigen was retrieved at 95 °C for 20 min in 0.01 M citrate buffer (pH 6.0). Then incubated with primary antibodies overnight at 4 °C, followed by incubation with the secondary antibody at RT for 1 h. The immunostaining was performed using DAB, and counterstained with hematoxylin.

The test system of data set [3] is NCI-H441 cells. As to the kind of experiment: Annexin V-FITC/PI apoptosis assay by flow cytometry. Type of data set: cell-based, human. The note with it: NCI-H441, 48 h. On the procedure: Cell apoptosis was quantified using an annexin V/propidium iodide (PI) detection kit (BD Biosciences, PA, USA) and flow cytometry. Cells (5 × 10^5/well) were plated in six-well dishes and then treated with the EGCG derivatives with or without cDDP. After the treatment, the collected cells were incubated in 100 µL of binding buffer and 5 µL of FITC annexin V and 10 µL of PI were added to the suspension. The mixtures were gently vortexed and then incubated for 15 min at room temperature in the dark before performing the flow cytometry measurements (BD FACSCalibur) within 1 h.

In the next data set the test system is NCI-H1975 cells. As to the kind of experiment: MTT cell proliferation assay, NCI-H1975. To be noted: 0-150 µM, 48 h. Type of data set: cell-based, human. On the procedure:
(§5) The effects of the EGCG derivatives on the survival of NSCLC cells were determined using the MTT assay. A549, NCI-H441, and NCI-H1975 cells were seeded in 96-well plates (3 × 10^4 cells/well) and then treated with one of the EGCG derivatives alone (0, 30, 60, 90, 120, or 150 µM), cDDP alone (12 µM), or 12 μM cDDP plus one of the EGCG derivatives (100 µM) for 48 h. MTT was then added to the cells and the plates were incubated for a further 4 h. After removal of the culture medium, the produced MTT formazan crystals were dissolved with 150 µL DMSO and measured at 492 nm using a microplate reader. The percentage of inhibition was calculated as follows: inhibition ratio (IR, %) = (1 − OD(sample)/OD(control)) × 100%. The experiments were carried out in triplicate, and the IC50 (the concentration of drug that inhibits cell growth by 50%) values were determined.

In another data set the test system is Caco-2 cell monolayers. As to the kind of experiment: Transport across Caco-2 cell monolayers. It counts as in vitro ADME, human. To be noted: Caco-2, 50 µg/mL, A→B. The protocol:
as §1, §2, §3

Data set [4] concerns NCI-H441 cells. As to the kind of experiment: MTT cell proliferation assay, NCI-H441. It counts as cell-based, human. The note with it: 0-150 µM, 48 h. The protocol: as §5
Data set [5] has as its system EGFR signaling pathway in NCI-H441 cells. As to the kind of experiment: Western blotting of EGFR signaling pathway proteins. Type of data set: cell-based, human. The note with it: NCI-H441, western blot after 12 h. The protocol:
as §4
(A western blot detects proteins with antibodies after separation by electrophoresis.)

The subject of data set [6] is NCI-H441 cells. As to the kind of experiment: Cell cycle analysis by PI staining and flow cytometry. It counts as cell-based, human. To be noted: NCI-H441, 0, 50, 100, 150 μM. On the procedure:
Aliquots of 5 × 10^5 cells were harvested, washed with phosphate-buffered saline (PBS), and then fixed in 70% ethanol at 4 °C overnight. After fixation, the cells were washed twice with cold PBS and stained in binding buffer containing 1 µg/mL of propidium iodide (BD Biosciences) and RNase for 0.5 h. The samples were then analyzed by flow cytometry (BD FACSCalibur).
(In general: Flow cytometry measures light scatter and fluorescence of single cells or particles in a stream.)

The test system of a further data set is A549 cells. As to the kind of experiment: MTT cell proliferation assay, A549. Type of data set: cell-based, human. The note with it: 0-150 µM, 48 h. On the procedure:
as §5

Structures are written as SMILES.

As usually defined, the Papp A→B is how fast a substance crosses the layer from the apical side. Read a low Papp A→B as poor permeation. Broadly, the Papp B→A is the apparent permeability from the basolateral to the apical side of a cell layer. The Papp is the rate of passage across a membrane or cell layer, normalised by area and donor concentration. In [1], `O=C(O[C@@H]1Cc2c(O)cc(O)cc2O[C@@H]1c1cc(O)c(O)c(O)c1)c1cc(O)c(O)c(O)c1` [EGCG, (−)-epigallocatechin-3-gallate] gave a Papp A→B at 30 min, 50 μg/mL of 0.189 ×10⁻⁶ cm/s; an apparent permeability from apical to basolateral (Papp A→B) at 60 min, 50 μg/mL of 0.32 ×10⁻⁶ cm/s; a Papp B→A at 30 min, 50 μg/mL of 0.89 ×10⁻⁶ cm/s; a Papp B→A at 60 min, 50 μg/mL of 0.083 ×10⁻⁶ cm/s. The apparent permeability (Papp) in [1] lay within 0.083 to 0.914 ×10⁻⁶ cm/s.

Regarding `[NH2][Pt]([NH2])([Cl])[Cl]` [cDDP, cisplatin], in the data set with NCI-H441 cells [2], the “levels of PCNA, p53, p21, cyclin D1 and cyclin E” value is recorded as “minimal effects”. Moreover, the “tumor growth compared with the control” value in the data set with NCI-H441 xenograft was “reduced tumor growth”.

Regarding `O=C(O[C@@H]1Cc2c(OCc3cnnn3[C@@H]3O[C@H](CO)[C@@H](O)[C@H](O)[C@H]3O)cc(O)cc2O[C@@H]1c1cc(O)c(O)c(O)c1)c1cc(O)c(O)c(O)c1` [compound 3, (2R,3R)-7-Hydroxy-5-((1-((2R,3R,4S,5S,6R)-3,4,5-trihydroxy-6-(hydroxymethyl)tetrahydro-2H-pyran-2-yl)-1H-1,2,3-triazol-5-yl)methoxy)-2-(3,4,5-trihydroxyphenyl)chroman-3-yl 3,4,5-trihydroxybenzoate], the “number of apoptotic cells compared to untreated control” value with NCI-H441 cells [3] was “significantly increased in a concentration-dependent manner”. Further, the “proliferation of NCI-H1975 cells” value in the data set with NCI-H1975 cells was “the same effect was not observed”. The “transepithelial transport rate, apical to basolateral, fold higher than EGCG” value with Caco-2 cell monolayers turned out to be 4.9 fold. In [1], this molecule displayed a Papp A→B at 30 min, 50 μg/mL of 0.914 ×10⁻⁶ cm/s; an apical-to-basolateral permeability (Papp A→B) at 60 min, 50 μg/mL of 0.41 ×10⁻⁶ cm/s; a Papp B→A at 30 min, 50 μg/mL of 0.83 ×10⁻⁶ cm/s; a Papp B→A at 60 min, 50 μg/mL of 0.39 ×10⁻⁶ cm/s. Also, in data set [1], the apparent permeability coefficient (Papp) lay in the range of 0.083 to 0.914 ×10⁻⁶ cm/s. Also, the “proliferation of NCI-H441 cells” value in the data set on NCI-H441 cells [4] is “substantial dose-dependent growth inhibition”. Also, the “P-EGFR, P-AKT and P-ERK levels” value in data set [5] is “effectively inhibited these phosphorylation proteins in a dose-dependent manner”. In addition, in the data set with NCI-H441 cells [6], the “cell cycle distribution, effect of increasing doses” value is reported as “increased the proportion of cells in the S phase in a dose-dependent manner”. For the same molecule, the “proliferation of A549 cells” value in the data set on A549 cells is listed as “the same effect was not observed”. The “nude mouse body weight compared with the control group” value in the data set on NCI-H441 xenograft (compound 3 200 mg/kg per day i.p.) was “did not reduce the nude mouse body weight”. The “tumor growth compared with the control” value in the data set with NCI-H441 xenograft is “reduced tumor growth”.
